Several values for one entry are separate records, joined by “and”; a condition that tells them apart may be missing. Equal entries are not always repeated. Toxic doses and inconclusive results are not listed. Rule as the data show it: active = T/C of 150% or more; inactive = T/C below 125%.
Test system: L1210 leukemia ip in BDF1 mice, survival T/C
Assay: NCI In Vivo Anticancer Drug Screen. Data for tumor model L1210 Leukemia (intraperitoneal) in B6D2F1 (BDF1) mice
Settings: endpoint: mean survival time, higher = longer survival
How it was run: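 In this screen, tumor-bearing mice given compound are compared to those given vehicle, and their survival values are reported as a treated-to-control quotient.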

[1] = dose: 100.0 mg/kg/injection, schedule: Q01DX009 (ip), vehicle: saline with Tween-80
[2] = dose: 100.0 mg/kg/injection, schedule: Q04DX003 (ip), vehicle: saline with Tween-80
[3] = dose: 200.0 mg/kg/injection, schedule: Q01DX009 (ip), vehicle: saline with Tween-80
[4] = dose: 200.0 mg/kg/injection, schedule: Q04DX003 (ip), vehicle: saline with Tween-80
[5] = dose: 400.0 mg/kg/injection, schedule: Q01DX009 (ip), vehicle: saline with Tween-80
[6] = dose: 400.0 mg/kg/injection, schedule: Q04DX003 (ip), vehicle: saline with Tween-80
[7] = dose: 100.0 mg/kg/injection, schedule: Q01DX001 (ip), vehicle: saline with Tween-80
[8] = dose: 200.0 mg/kg/injection, schedule: Q01DX001 (ip), vehicle: saline with Tween-80
[9] = dose: 400.0 mg/kg/injection, schedule: Q01DX001 (ip), vehicle: saline with Tween-80
[10] = dose: 100.0 mg/kg/injection, schedule: Q01DX001 (ip), vehicle: saline
[11] = dose: 200.0 mg/kg/injection, schedule: Q01DX001 (ip), vehicle: saline
[12] = dose: 400.0 mg/kg/injection, schedule: Q01DX001 (ip), vehicle: saline
[13] = dose: 25.0 mg/kg/injection, schedule: Q04DX003 (ip), vehicle: saline with Tween-80
[14] = dose: 50.0 mg/kg/injection, schedule: Q04DX003 (ip), vehicle: saline with Tween-80
[15] = dose: 100.0 mg/kg/injection, schedule: Q01DX001 (ip), vehicle: carboxymethylcellulose (CMC)
[16] = dose: 200.0 mg/kg/injection, schedule: Q01DX001 (ip), vehicle: carboxymethylcellulose (CMC)
[17] = dose: 400.0 mg/kg/injection, schedule: Q01DX001 (ip), vehicle: carboxymethylcellulose (CMC)

Measured: T/C

CCN(C(=O)Nc1ccccc1)c1ccccc1C
inactive: [1] 97 % of control | [2] 111 % of control | [3] 86 % of control | [4] 98 % of control | [5] 92 % of control | [6] 102 % of control

CC(C)(C(=O)O)c1ccccc1
inactive: [7] 96 % of control | [8] 96 % of control | [9] 96 % of control

Cc1cc(N(CCOS(C)(=O)=O)CCOS(C)(=O)=O)ccc1C=Nc1cccc(C(=O)O)c1
inactive: dose: 2.5 mg/kg/injection, schedule: Q04DX003 (ip), vehicle: Klucel (hydroxypropylcellulose) (HPC) 111 % of control | dose: 5.0 mg/kg/injection, schedule: Q04DX003 (ip), vehicle: Klucel (hydroxypropylcellulose) (HPC) 113 % of control | dose: 10.0 mg/kg/injection, schedule: Q04DX003 (ip), vehicle: Klucel (hydroxypropylcellulose) (HPC) 122 % of control | dose: 20.0 mg/kg/injection, schedule: Q04DX003 (ip), vehicle: Klucel (hydroxypropylcellulose) (HPC) 120 % of control | dose: 40.0 mg/kg/injection, schedule: Q04DX003 (ip), vehicle: Klucel (hydroxypropylcellulose) (HPC) 115 % of control

COc1cc(C(N)=O)cc(OC)c1OC
inactive: [7] 96 % of control | [8] 98 % of control | [9] 98 % of control

CC(=O)/C=C\c1ccc(Cl)cc1
inactive: [10] 106 % of control | [11] 98 % of control | [12] 106 % of control

CC(C)CC(CC(C)C)NCCOC(=O)Cc1ccccc1
inactive: dose: 75.0 mg/kg/injection, schedule: Q01DX001 (ip), vehicle: other 93 % of control | dose: 150.0 mg/kg/injection, schedule: Q01DX001 (ip), vehicle: other 89 % of control

CCOC(=O)CCCN(C(=O)OCc1ccccc1)N(C)C(=O)OCc1ccccc1
inactive: [13] 104 % of control | [14] 111 % of control | [2] 106 % of control | [4] 104 % of control | [6] 101 % of control

ClCCCCOCC1CCCO1 (stereo unspecified)
inactive: [1] 100 % of control | [3] 107 % of control

CCOC(=O)CNC(=O)Nc1cc(OC)ccc1OC
inactive: [1] 96 % of control | [3] 95 % of control | [5] 100 % of control

Oc1ccc(-c2n[nH]c3c2CCCc2ccccc2-3)cc1
inactive: dose: 12.5 mg/kg/injection, schedule: Q01DX001 (ip), vehicle: saline with Tween-80 101 % of control | dose: 12.5 mg/kg/injection, schedule: Q04DX003 (ip), vehicle: saline with Tween-80 103 % of control | dose: 25.0 mg/kg/injection, schedule: Q01DX001 (ip), vehicle: saline with Tween-80 104 % of control | [13] 106 % of control | dose: 50.0 mg/kg/injection, schedule: Q01DX001 (ip), vehicle: saline with Tween-80 108 % of control | [14] 92 % of control

COc1cc2c(c(OC)c1OC)-c1cc3c(cc1[C@@H](OC(C)=O)[C@@H]1COC(=O)[C@H]1C2)OCO3
inactive: dose: 6.22 mg/kg/injection, schedule: Q01DX009 (ip), vehicle: saline + alcohol 89 % of control | dose: 9.33 mg/kg/injection, schedule: Q01DX009 (ip), vehicle: saline + alcohol 94 % of control | dose: 14.0 mg/kg/injection, schedule: Q01DX009 (ip), vehicle: saline + alcohol 107 % of control | dose: 21.0 mg/kg/injection, schedule: Q01DX009 (ip), vehicle: saline + alcohol 105 % of control

CSc1nc(C)c(C=O)s1
inactive: [15] 100 % of control | [16] 96 % of control | [17] 94 % of control

BrCCOCCBr
inactive: dose: 25.0 mg/kg/injection, schedule: Q01DX009 (ip), vehicle: other 97 % of control | dose: 50.0 mg/kg/injection, schedule: Q01DX009 (ip), vehicle: other 92 % of control | dose: 100.0 mg/kg/injection, schedule: Q01DX009 (ip), vehicle: other 95 % of control

CCOC(=O)c1cnc2ccccc2c1Cl
inactive: [10] 103 % of control and 87 % of control | [11] 105 % of control | [12] 103 % of control

CC1c2cccc(Cl)c2C(=O)c2c(Cl)cccc21
inactive: dose: 100.0 mg/kg/injection, schedule: Q01DX009 (ip), vehicle: Klucel (hydroxypropylcellulose) (HPC) 102 % of control | dose: 100.0 mg/kg/injection, schedule: Q04DX003 (ip), vehicle: Klucel (hydroxypropylcellulose) (HPC) 108 % of control | dose: 200.0 mg/kg/injection, schedule: Q01DX009 (ip), vehicle: Klucel (hydroxypropylcellulose) (HPC) 102 % of control | dose: 200.0 mg/kg/injection, schedule: Q04DX003 (ip), vehicle: Klucel (hydroxypropylcellulose) (HPC) 102 % of control | dose: 400.0 mg/kg/injection, schedule: Q01DX009 (ip), vehicle: Klucel (hydroxypropylcellulose) (HPC) 110 % of control | dose: 400.0 mg/kg/injection, schedule: Q04DX003 (ip), vehicle: Klucel (hydroxypropylcellulose) (HPC) 96 % of control

CC(c1ccccc1)S(=O)(=O)c1ccccc1 (stereo unspecified)
inactive: [10] 102 % of control | dose: 100.0 mg/kg/injection, schedule: Q01DX009 (ip), vehicle: saline 95 % of control | dose: 100.0 mg/kg/injection, schedule: Q04DX003 (ip), vehicle: saline 97 % of control | [11] 101 % of control | dose: 200.0 mg/kg/injection, schedule: Q01DX009 (ip), vehicle: saline 101 % of control | dose: 200.0 mg/kg/injection, schedule: Q04DX003 (ip), vehicle: saline 95 % of control | [12] 95 % of control | dose: 400.0 mg/kg/injection, schedule: Q01DX009 (ip), vehicle: saline 97 % of control | dose: 400.0 mg/kg/injection, schedule: Q04DX003 (ip), vehicle: saline 95 % of control

CCC1([N+](=O)[O-])COP(=O)(N2CC2C)OC1 (stereo unspecified)
inactive: [15] 98 % of control | [16] 96 % of control | [17] 98 % of control

O=C(NCCCc1ccc(S(=O)(=O)F)cc1)Oc1ccc([N+](=O)[O-])cc1
inactive: dose: 25.0 mg/kg/injection, schedule: Q01DX009 (ip), vehicle: saline with Tween-80 102 % of control | dose: 50.0 mg/kg/injection, schedule: Q01DX009 (ip), vehicle: saline with Tween-80 100 % of control | [1] 93 % of control and 86 % of control

C/C=C/C(O)(C(=O)OCC)C1CCCCC1 (stereo unspecified)
inactive: dose: 100.0 mg/kg/injection, schedule: Q01DX001 (ip), vehicle: other 107 % of control | dose: 200.0 mg/kg/injection, schedule: Q01DX001 (ip), vehicle: other 98 % of control | dose: 400.0 mg/kg/injection, schedule: Q01DX001 (ip), vehicle: other 102 % of control

CN(C)[Se](=O)Cl (stereo unspecified)
inactive: dose: 12.5 mg/kg/injection, schedule: Q04DX002 (ip), vehicle: saline with Tween-80 100 % of control | dose: 25.0 mg/kg/injection, schedule: Q04DX002 (ip), vehicle: saline with Tween-80 110 % of control

CC(=O)N1C(=O)NC(=O)C1(CSCc1ccccc1)CSCc1ccccc1
inactive: dose: 50.0 mg/kg/injection, schedule: Q01DX005 (ip), vehicle: saline 104 % of control | dose: 100.0 mg/kg/injection, schedule: Q01DX005 (ip), vehicle: saline 98 % of control | dose: 200.0 mg/kg/injection, schedule: Q01DX005 (ip), vehicle: saline 110 % of control | dose: 400.0 mg/kg/injection, schedule: Q01DX005 (ip), vehicle: saline 94 % of control
